Source: PubChem BioAssay AID720603 (Broad Institute, 2013)
Inconclusive results are not listed.

Test system: C2C12 mouse myoblast viability, CellTiter-Glo ATP, 8-48 h
Test: cytotoxicity in mouse C2C12 myoblasts – cell-based, CellTiter-Glo ATP luminescence, 8/24/48 h, dry powder, cytotoxicity control for HRAS target identification, dose response (AID 720603)

Row | SMILES | AC50 (measured here: 8 h treatment) [nM] | AC50 (measured here: 24 h treatment) [nM] | AC50 (measured here: 48 h treatment) [nM]
1 | COc1ccc(N(C(=O)CCl)C(C(=O)NCCc2ccccc2)c2cccs2)cc1Cl (stereo unspecified) | 17800 | 108 | 311
2 | COC(=O)c1ccc([C@@H]2c3[nH]c4ccccc4c3C[C@@H](C(=O)OC)N2C(=O)CCl)cc1 | 597 | 21.2 | 80.6
3 | C#CCCCC(=O)NCCOCCOCCOc1ccc(N(C(=O)CCl)C(C(=O)NCCc2ccccc2)c2cccs2)cc1Cl (stereo unspecified) | – | 1330 | 2620
4 | CC(C)(C)OC(=O)NCCOCCOCCOc1ccc(N(C(=O)CCl)C(C(=O)NCCc2ccccc2)c2cccs2)cc1Cl (stereo unspecified) | 1380 | 161 | 388
